Data as given in patent US20120039917A1, “IMMUNO[…]” (priority 2008, published 2012).
Where “and” joins values, the source holds several entries; their conditions need not be identical. Identical values can stand only once.

Key:
[1] = system: resting responder T cells; test: Third party MLR of resting responder T cells sorted after PXD exposure; assay type: cell-based, human; conditions: 10 μM PXD added day 5 of first MLR; sorted day 8, restimulated without PXD
Procedure: (§1) Mixed lymphocyte reactions were established using unrelated, HLA-mismatched healthy donor blood samples as donor/recipient pairs. Stimulator PBMC were γ-irradiated with 30 Gy as described previously (Zenhausen et al., 2007). Responder PBMC were washed twice in PBS, 5,6-carboxy-succinimidyl-fluorescein-ester (CSFE)-labelled (1.25 μM, Sigma) at room temperature for 5 minutes, and washed twice in PBS/10% FCS. Two hundred thousand stimulator and responder cells were added per well at a 1:1 ratio in a 96 U-well plate in T cell medium. Stimulator and responder cells were also plated alone, and all cells were cultured in a 5% CO2, 37° C. humidified incubator. Viability, CFSE fluorescence and cell surface antigen expression were determined by flow cytometry. Cells were washed twice in FACS buffer (PBS, 2% FCS), and resuspended in 50 μL/5×10^5 cells and analysed on a Becton Dickinson LSRII FACS analyser using FlowJo (TreeStar) software.
The experiment described above was expanded by determining the effect of PXD exposure on responder T cells that had previously been exposed to, but not activated in a MLR. Two consecutive sets of MLRs were set up, mixing responder T cells and γ-irradiated stimulator cells on day 0, adding 10 μM PXD or 0.1% DMSO on day 5, and analysing proliferation and viability of responder T cells on day 8. […]

[2] = system: unstimulated T cells; test: HLA-mismatched MLR after transient exposure of unstimulated T cells to PXD; assay type: cell-based, human; conditions: 10 μM PXD 24 h, washed, then MLR, FACS 8 days later; control MLR 62.6%
Procedure: as §1
The inventors next determined whether a transient exposure to PXD affected the ability of unstimulated T cells to respond normally to foreign antigen. Unstimulated T cells were incubated with 10 μM PXD for 24 h, washed twice and stimulated by adding HLA-mismatched γ-irradiated stimulator cells.

[3] = system: primary ALL blasts; test: Viability of leukemic blasts from bone marrow samples, AV/PI staining; assay type: cell-based, human
Procedure: (§2) FIG. 6. Sensitivity of different cell types to PXD. Different cell types were incubated with 10 μM PXD for 24 h and viability was determined by AV/PI staining and reported as [% viable blasts after PXD exposure]/[% viable blasts after 0.1% DMSO exposure]. Percentage values are as follows: AML-derived HL60: 16±5 and HL60p°: 54±6, ALL-derived MOLT-4: 44±4, MM-derived U226: 59±6 and RPMI 8226: 12±4, primary AML blasts: 64±5, primary ALL blasts: 23±4, normal BM: 89±5, proliferating T cells: 69±4, resting T cells: 98±6. Results from cell lines are presented as the average±SEM of at least 3 separate experiments, results from bone marrow samples are presented as the average±SD of single experiments performed in duplicate.
(§3) Bone marrow samples from AML (n=22) and ALL (n=8) patients, containing more than 80% blasts, were selected from the tissue bank. Bone marrow samples were thawed, centrifuged at 1400 rpm in a Multifuge 3 s (Heraeus) for 4 min, washed twice in RPMI and resuspended in RPMI+10% FCS. Aliquots were incubated for 24 h in the presence of 0.1% DMSO (control) or 10 μM PXD and examined for morphology and viability. […] was determined by AV/PI staining as [% viable blasts after PXD treatment]/[% viable blasts in control sample].
(§4) Cells were centrifuged at 1400 rpm in a Multifuge 3 s (Heraeus) for 4 min at room temperature, washed in phosphate buffered saline solution, pH 7.3 (PBS) and resuspended in Annexin V binding buffer. Small aliquots (0.5-1×10^6 cells) were transferred to 1.5 mL tubes and spun at 1400 rpm in a Multifuge 3 s (Heraeus) for 4 min. Most supernatant was removed and 5 μL PI and 5 μL FITC-labelled AV was added to the wet pellets which were vortexed. After 30 min in the dark on ice, 500 μl of AV binding buffer was added, the cells were centrifuged for 2 min at 1400 rpm, washed once with AV binding buffer and resuspended in 300 μL of AV binding buffer in FACS tubes. Staining was analyzed by flow cytometry using a Becton Dickinson Canto II FACS analyser using FlowJo (TreeStar) software.

[4] = system: primary AML blasts; test: as above; assay type: cell-based, human
Procedure: as §2, §3, §4

[5] = Sensitivity of cell types to PXD, viability by AV/PI staining; assay type: cell-based; conditions: human, normal bone marrow cells; normal BM, 10 μM PXD for 24 h; read-out: [% viable blasts after PXD exposure]/[% viable blasts after 0.1% DMSO exposure]
Procedure: as §2
Bone marrow samples from AML (n=22) and ALL (n=8) patients, containing more than 80% blasts, were selected from the tissue bank. […] was determined by AV/PI staining as [% viable blasts after PXD treatment]/[% viable blasts in control sample].
Cells were centrifuged at 1400 rpm in a Multifuge 3 s (Heraeus) for 4 min at room temperature, washed in phosphate buffered saline solution, pH 7.3 (PBS) and resuspended in Annexin V binding buffer. […] Staining was analyzed by flow cytometry using a Becton Dickinson Canto II FACS analyser using FlowJo (TreeStar) software.

[6] = system: late stage solid cancer patients; conditions: intravenous infusion, phase I; cited from earlier work
[7] = system: resting T cells; test: Cell viability measured by Trypan blue exclusion; assay type: cell-based, human; conditions: 10 μM PXD
Procedure: (§5) Immediately prior to experiments, frozen PBMC were thawed, centrifuged at 1400 rpm in a Multifuge 3 s (Heraeus) for 4 min, washed in RPMI+10% FCS and resuspended in T cell medium (RPMI+10% FCS+10 μM 2-mercaptoethanol (Sigma), 1×glutamine, 1×non-essential amino acids (Gibco)) at 2×10^6 cells/mL. Cells (2×10^5) were activated by adding 10 μg/mL anti-CD3 and 5 μg/mL anti-CD28 and 20 U/mL IL-2 per well. Cells were incubated at 37° C. in a humidified incubator maintained at 5% CO2 for 4 to 5 days until large numbers of large spherical aggregates or “bursts” of lymphocytes were observed. Activated proliferating T cells were pooled from the wells for further experiments. Resting T cells were incubated for the same length of time but in the presence of 20 U/mL IL-2 only.
(§6) Proliferating and resting PBMCs were centrifuged at 1400 rpm in a Multifuge 3 s (Heraeus) for 4 min at room temperature, resuspended in fresh T cell medium in 96 U-well plates (200 μL per well at densities of 2×10^6 cells/mL) in the presence of PXD or 0.1% DMSO and incubated in a 5% CO2, 37° C. humidified incubator. Viable cells, as determined by Trypan blue exclusion, were counted in a Neubauer haemocytometer every 24 h for several days.

[8] = system: proliferating T cells; test: Cell viability measured by Trypan blue exclusion; assay type: cell-based, human; conditions: 10 μM PXD
Procedure: as §5, §6

Oc1ccc(C2=Cc3ccc(O)cc3OC2)cc1 [PXD, Isoflav-3-en-4′,7-diol]
viability and functionality of non-proliferating T cells [1]: affects neither the viability nor the functionality
CD3+CFSEloAV− population after transient exposure [2]: 56.2%
viability at 10 µM ([3]; Homo sapiens, 24 h, primary ALL blasts (average), 10 μM PXD for 24 h, read-out: [% viable blasts after PXD exposure]/[% viable blasts after 0.1% DMSO exposure]): 23 ± 4%
% Viable Blasts ([3]; individual ALL patient bone marrow samples, 10 μM PXD 24 h, relative to 0.1% DMSO control): 25% and 29% and 37% and 40% and 7% and 14% and 16% and 19%
viability at 10 µM ([4]; Homo sapiens, 24 h, primary AML blasts (average), 10 μM PXD for 24 h, read-out: [% viable blasts after PXD exposure]/[% viable blasts after 0.1% DMSO exposure]): 64 ± 5%
% Viable Blasts ([4]; individual AML patient bone marrow samples, 10 μM PXD 24 h, relative to 0.1% DMSO control): 23% and 32% and 36% and 39% and 44% and 49% and 55% and 57% and 58% and 62% and 67% and 71% and 75% and 88% and 92% and 95% and 96% and 97% and 99% and 20%
viability at 24 h, 10 μM [5]: 89 ± 5%
stabilization of disease after treatment, some patients [6]: up to 6 months
well tolerated dose with minor side effects [6]: ≤ 30 mg/kg
viability (Trypan blue exclusion) [7]: remain viable
viability (Trypan blue exclusion) [8]: severely compromised
